Tested on: patients with advanced solid tumors
Assay: Phase I trial: safety, tolerability, DLT, MTD (CTCAE v4.0)
Assay type: in vivo
From the text: Eligible patients had at least one measurable lesion per RECIST v 1.1, Eastern Cooperative Oncology Group (ECOG) performance status of 0 or 1, and adequate hematological, renal, cardiac and hepatic functions. The primary objectives were to assess safety and tolerability as well as to determine the MTD, DLT, and dose recommended for further study. The secondary objectives were to assess the PK and preliminary efficacy of CT053PTSA.
An initial accelerated titration design was used in the 15 and 30 mg QD cohorts, and the “3+3” schema was used starting in the 60 mg QD cohort. […] The study protocol was approved by an institutional review board at Sun Yat-sen University Cancer Center. Written informed consent was obtained from all the patients before enrollment.
Descriptive statistics of safety are presented per CTCAE v4.0. Subjects who received at least one dose of CT053PTSA were considered eligible to be evaluated and included in safety analyses. […] According to the RECIST 1.1 criteria, imaging examinations were performed at each specified time point in the protocol. The antitumor activity was measured by RECIST1.1.

Cc1c(C(=O)Nc2ccc(Oc3ccnc4cc(OCC(C)(C)O)ccc34)c(F)c2)c(=O)n(-c2ccccc2)n1C [CT053PTSA]
Anaemia, All (15mg (n = 1)): 0 n (%) | Anaemia, ≥ G3 (15mg (n = 1)): 0 n (%) | Blood chloride decreased, All (15mg (n = 1)): 0 n (%) | Blood chloride decreased, ≥ G3 (15mg (n = 1)): 0 n (%) | Blood creatinine increased, All (15mg (n = 1)): 0 n (%) | Blood creatinine increased, ≥ G3 (15mg (n = 1)): 0 n (%) | Blood potassium decreased, All (15mg (n = 1)): 0 n (%) | Blood potassium decreased, ≥ G3 (15mg (n = 1)): 0 n (%) | Blood sodium decreased, All (15mg (n = 1)): 0 n (%) | Blood sodium decreased, ≥ G3 (15mg (n = 1)): 0 n (%) | Blood uric acid increased, All (15mg (n = 1)): 0 n (%) | Blood uric acid increased, ≥ G3 (15mg (n = 1)): 0 n (%) | Decreased appetite, All (15mg (n = 1)): 0 n (%) | Decreased appetite, ≥ G3 (15mg (n = 1)): 0 n (%) | Diarrhea, All (15mg (n = 1)): 0 n (%) | Diarrhea, ≥ G3 (15mg (n = 1)): 0 n (%) | Dizziness, All (15mg (n = 1)): 0 n (%) | Dizziness, ≥ G3 (15mg (n = 1)): 0 n (%) | Dry mouth, All (15mg (n = 1)): 0 n (%) | Dry mouth, ≥ G3 (15mg (n = 1)): 0 n (%) | Electrocardiogram QT prolonged, All (15mg (n = 1)): 0 n (%) | Electrocardiogram QT prolonged, ≥ G3 (15mg (n = 1)): 0 n (%) | Electrolyte imbalance, All (15mg (n = 1)): 0 n (%) | Electrolyte imbalance, ≥ G3 (15mg (n = 1)): 0 n (%) | Hemoglobin decreased, All (15mg (n = 1)): 0 n (%) | Hemoglobin decreased, ≥ G3 (15mg (n = 1)): 0 n (%) | Hypertension, All (15mg (n = 1)): 0 n (%) | Hypertension, ≥ G3 (15mg (n = 1)): 0 n (%) | Hyponatremia, All (15mg (n = 1)): 0 n (%) | Hyponatremia, ≥ G3 (15mg (n = 1)): 0 n (%) | Hypoparathyroidism, All (15mg (n = 1)): 0 n (%) | Hypoparathyroidism, ≥ G3 (15mg (n = 1)): 0 n (%) | Mouth ulceration, All (15mg (n = 1)): 0 n (%) | Mouth ulceration, ≥ G3 (15mg (n = 1)): 0 n (%) | Nausea, All (15mg (n = 1)): 0 n (%) | Nausea, ≥ G3 (15mg (n = 1)): 0 n (%) | Oropharyngeal pain, All (15mg (n = 1)): 0 n (%) | Oropharyngeal pain, ≥ G3 (15mg (n = 1)): 0 n (%) | Pain, All (15mg (n = 1)): 0 n (%) | Pain, ≥ G3 (15mg (n = 1)): 0 n (%) | Palmar-plantar erythrodysaesthesia syndrome, All (15mg (n = 1)): 0 n (%) | Palmar-plantar erythrodysaesthesia syndrome, ≥ G3 (15mg (n = 1)): 0 n (%) | Platelet count decreased, All (15mg (n = 1)): 0 n (%) | Platelet count decreased, ≥ G3 (15mg (n = 1)): 0 n (%) | Proteinuria, All (15mg (n = 1)): 0 n (%) | Proteinuria, ≥ G3 (15mg (n = 1)): 0 n (%) | Pyrexia, All (15mg (n = 1)): 0 n (%) | Pyrexia, ≥ G3 (15mg (n = 1)): 0 n (%) | Sinus bradycardia, All (15mg (n = 1)): 0 n (%) | Sinus bradycardia, ≥ G3 (15mg (n = 1)): 0 n (%) | Stomatitis, All (15mg (n = 1)): 0 n (%) | Stomatitis, ≥ G3 (15mg (n = 1)): 0 n (%) | Vomiting, All (15mg (n = 1)): 0 n (%) | Vomiting, ≥ G3 (15mg (n = 1)): 0 n (%) | leukopenia, All (15mg (n = 1)): 1 (100) n (%) | leukopenia, ≥ G3 (15mg (n = 1)): 0 n (%) | neutropenia, All (15mg (n = 1)): 0 n (%) | neutropenia, ≥ G3 (15mg (n = 1)): 0 n (%) | transaminase elevation, All (15mg (n = 1)): 1 (100) n (%) | transaminase elevation, ≥ G3 (15mg (n = 1)): 0 n (%) | Anaemia, All (30mg (n = 1)): 0 n (%) | Anaemia, ≥ G3 (30mg (n = 1)): 0 n (%) | Blood chloride decreased, All (30mg (n = 1)): 0 n (%) | Blood chloride decreased, ≥ G3 (30mg (n = 1)): 0 n (%) | Blood creatinine increased, All (30mg (n = 1)): 0 n (%) | Blood creatinine increased, ≥ G3 (30mg (n = 1)): 0 n (%) | Blood potassium decreased, All (30mg (n = 1)): 0 n (%) | Blood potassium decreased, ≥ G3 (30mg (n = 1)): 0 n (%) | Blood sodium decreased, All (30mg (n = 1)): 0 n (%) | Blood sodium decreased, ≥ G3 (30mg (n = 1)): 0 n (%) | Blood uric acid increased, All (30mg (n = 1)): 0 n (%) | Blood uric acid increased, ≥ G3 (30mg (n = 1)): 0 n (%) | Decreased appetite, All (30mg (n = 1)): 1 (100) n (%) | Decreased appetite, ≥ G3 (30mg (n = 1)): 0 n (%) | Diarrhea, All (30mg (n = 1)): 0 n (%) | Diarrhea, ≥ G3 (30mg (n = 1)): 0 n (%) | Dizziness, All (30mg (n = 1)): 0 n (%) | Dizziness, ≥ G3 (30mg (n = 1)): 0 n (%) | Dry mouth, All (30mg (n = 1)): 0 n (%) | Dry mouth, ≥ G3 (30mg (n = 1)): 0 n (%) | Electrocardiogram QT prolonged, All (30mg (n = 1)): 0 n (%) | Electrocardiogram QT prolonged, ≥ G3 (30mg (n = 1)): 0 n (%) | Electrolyte imbalance, All (30mg (n = 1)): 0 n (%) | Electrolyte imbalance, ≥ G3 (30mg (n = 1)): 0 n (%) | Hemoglobin decreased, All (30mg (n = 1)): 0 n (%) | Hemoglobin decreased, ≥ G3 (30mg (n = 1)): 0 n (%) | Hypertension, All (30mg (n = 1)): 0 n (%) | Hypertension, ≥ G3 (30mg (n = 1)): 0 n (%) | Hyponatremia, All (30mg (n = 1)): 1 (100) n (%) | Hyponatremia, ≥ G3 (30mg (n = 1)): 0 n (%) | Hypoparathyroidism, All (30mg (n = 1)): 0 n (%) | Hypoparathyroidism, ≥ G3 (30mg (n = 1)): 0 n (%) | Mouth ulceration, All (30mg (n = 1)): 0 n (%) | Mouth ulceration, ≥ G3 (30mg (n = 1)): 0 n (%)

— article PMC9632963, “Preclinical characterization and phase I clinical trial of CT053PTSA targets MET, AXL, and VEGFR2 in patients with advanced solid tumors” (Frontiers in Immunology, 2022)
